Source: US8470357B2, “Methods of treatment with Syk inhibitors” (Portola Pharmaceuticals, Inc., priority 2004, dated 2013)

Columns and labels:
[1] = system: leukocyte rolling on activated, collagen-adhering platelets; assay: Recruitment of leukocytes to adherent, activated platelets under shear; assay type: cell-based; conditions: increasing concentrations; citrated human blood with 2.5 μM Integrilin, type III collagen, 10 minutes, shear 650/sec (FIG. 3)
Experimental: Briefly, human blood, anticoagulated with citrate in the presence of 2.5 μM Integrilin, was exposed for 10 minutes to type III collagen at a shear rate of 650/sec.

[2] = system: leukocyte adhesion to IL-1β-activated human umbilical endothelial cells; assay: Recruitment of leukocytes to activated endothelial cells under shear; assay type: cell-based; conditions: 25 or 50 μM; citrated human blood, IL-1β-activated endothelial cells, shear 650/sec (FIG. 4)
Source text: Briefly, cultured monolayers of human umbilical endothelial cells were activated by exposure to IL-1β for 24 hrs. Human blood, anticoagulated with citrate, was exposed to the activated endothelial cells at a shear rate of 650/sec for the time indicated.

[3] = system: platelet thrombus formation on type III collagen; assay: Platelet thrombus formation on type III collagen under shear; assay type: cell-based, human
Experimental: Briefly, unanticoagulated human blood was exposed to type III collagen for 4 minutes at a rate of shear (e.g., about 850/sec.) equivalent to that encountered in coronary arteries.

CC(=O)N(C)c1ccc(Nc2nc(NC3CCC3)c3[nH]cnc3n2)cc1.Cl [NVP-QAB205]
inhibition of leukocyte rolling [1]: caused inhibition of leukocyte rolling | inhibition of leukocyte adhesion to activated endothelial cells [2]: marked inhibition of leukocyte adhesion | platelet adhesion ([3]; at 5, 10, and 25 μM (see FIG. 2)): did not completely block platelet adhesion | inhibition of thrombus formation ([3]; increasing concentrations, unanticoagulated human blood, type III collagen, 4 minutes, shear about 850/sec (FIG. 2)): caused inhibition of thrombus formation
